Here are results for 14 compounds from US12673975B2, “Cyclic peptide, cell scaffold material, cell separating material, and medium” (FUJIFILM Corporation, priority 2019, dated 2026).

One series has as its target human integrin αvβ5 (Homo sapiens, UniProt P06756+P18084). Nature of the series: Evaluation of integrin binding property (surface plasmon resonance, Biacore 3000, immobilized cyclic peptide). To be noted: surface plasmon resonance, immobilized cyclic peptide, human integrin αvβ5; read-out: Binding activity (integrin binding property, dissociation constant rank). In outline: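 SPR with cyclic peptide amine-coupled via EDC/NHS to a CM5 chip, blank channel as reference. Integrin αvβ5 at 30, 100, 300 and 1,000 nM injected 10 min at 25 °C in HEPES buffer pH 7.4 with 5 mM MgCl2, 30 min buffer flow, EDTA regeneration; Kd from reference-subtracted signals, graded by category.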
Background: SPR reads the build-up and loss of mass on a sensor chip optically.

A short description of series [1]: Evaluation of molecule stability (alkali treatment, residual rate by LC/MS). The series is classed as physicochemical. To be noted: alkali treatment, residual rate by LC/MS. The procedure, abridged:
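500 μM aqueous cyclic peptide mixed with an equal volume of 1 M NaOH and held 3 h at 15 °C. Residual rate is total LC/MS peak area after treatment relative to untreated (100%), using a C18 column, pH 3 ammonium formate/acetonitrile gradient, 45 °C, ESI±.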

Starred links: 1 amine or outer side, 2 acyl side, 3 side chain; linkers in the order of their positions; H or OH if unused. Positions of bridges follow the written chain, without caps; N, C: chain ends. Non-standard residues stand in square brackets, D forms with d. Residues, ends and D or L forms follow the SMILES beside them. hCys = N[C@@H](CCS)C(=O)O; Dab = NCC[C@H](N)C(=O)O; X2 = O=C(C[*:1])[*:2]

Chain of human integrin αvβ5 (P06756 31-1048): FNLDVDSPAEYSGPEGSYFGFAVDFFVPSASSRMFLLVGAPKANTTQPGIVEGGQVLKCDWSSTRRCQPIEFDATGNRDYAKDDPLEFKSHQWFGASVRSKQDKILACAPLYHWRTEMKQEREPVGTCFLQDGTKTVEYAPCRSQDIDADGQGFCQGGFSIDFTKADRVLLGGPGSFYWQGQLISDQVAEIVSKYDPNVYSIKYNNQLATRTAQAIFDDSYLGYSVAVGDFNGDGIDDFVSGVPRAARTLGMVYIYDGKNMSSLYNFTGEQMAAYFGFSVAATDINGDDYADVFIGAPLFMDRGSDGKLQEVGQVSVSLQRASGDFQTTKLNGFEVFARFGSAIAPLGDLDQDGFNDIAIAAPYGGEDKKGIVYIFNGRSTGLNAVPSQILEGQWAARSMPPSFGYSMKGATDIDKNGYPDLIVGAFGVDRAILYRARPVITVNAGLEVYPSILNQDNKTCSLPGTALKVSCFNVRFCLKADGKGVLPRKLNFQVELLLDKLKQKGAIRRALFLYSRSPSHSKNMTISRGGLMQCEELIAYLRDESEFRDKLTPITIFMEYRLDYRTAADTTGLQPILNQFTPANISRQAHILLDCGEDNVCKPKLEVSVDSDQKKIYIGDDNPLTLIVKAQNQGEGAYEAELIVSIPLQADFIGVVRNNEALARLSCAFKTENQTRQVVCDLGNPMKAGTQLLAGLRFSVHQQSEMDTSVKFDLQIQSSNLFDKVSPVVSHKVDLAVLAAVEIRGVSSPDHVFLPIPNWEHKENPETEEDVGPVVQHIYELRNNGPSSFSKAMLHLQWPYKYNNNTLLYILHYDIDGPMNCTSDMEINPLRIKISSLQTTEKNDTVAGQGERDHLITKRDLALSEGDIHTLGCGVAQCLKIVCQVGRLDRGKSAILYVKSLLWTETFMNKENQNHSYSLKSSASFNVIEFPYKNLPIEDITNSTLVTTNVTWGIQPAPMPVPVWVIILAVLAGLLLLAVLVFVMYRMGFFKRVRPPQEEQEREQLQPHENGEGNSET
Chain of human integrin αvβ5 (P18084 24-799): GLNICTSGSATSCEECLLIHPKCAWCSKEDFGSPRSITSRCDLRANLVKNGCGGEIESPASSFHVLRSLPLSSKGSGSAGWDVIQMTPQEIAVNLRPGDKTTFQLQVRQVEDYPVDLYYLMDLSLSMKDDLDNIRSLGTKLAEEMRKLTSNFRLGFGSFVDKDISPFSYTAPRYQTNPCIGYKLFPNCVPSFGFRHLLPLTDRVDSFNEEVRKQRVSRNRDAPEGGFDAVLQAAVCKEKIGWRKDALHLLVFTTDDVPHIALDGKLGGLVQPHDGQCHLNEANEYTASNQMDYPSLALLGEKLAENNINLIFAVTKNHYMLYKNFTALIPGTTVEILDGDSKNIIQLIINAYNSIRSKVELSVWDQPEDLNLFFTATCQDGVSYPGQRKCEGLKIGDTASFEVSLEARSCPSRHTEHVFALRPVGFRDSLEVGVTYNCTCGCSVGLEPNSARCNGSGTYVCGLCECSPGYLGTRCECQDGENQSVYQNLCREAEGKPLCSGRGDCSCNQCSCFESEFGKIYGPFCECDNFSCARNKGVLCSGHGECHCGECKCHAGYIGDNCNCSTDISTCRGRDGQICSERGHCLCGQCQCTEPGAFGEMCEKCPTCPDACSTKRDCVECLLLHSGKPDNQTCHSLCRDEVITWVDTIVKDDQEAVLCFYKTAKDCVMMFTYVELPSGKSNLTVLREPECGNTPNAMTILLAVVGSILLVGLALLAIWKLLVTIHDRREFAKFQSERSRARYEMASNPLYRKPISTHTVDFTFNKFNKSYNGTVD

Regarding `C[C@@H]1NC(=O)[C@H](Cc2ccccc2)NC(=O)[C@H]([C@@H](C)O)NC(=O)[C@H](CC(=O)O)NC(=O)CNC(=O)[C@H](CCCNC(=N)N)NC(=O)[C@@H]2CCCN2C(=O)[C@H](CC(=O)O)NC(=O)[C@@H](NC(=O)[C@H](CCCCN)NC(=O)[C@H](CCCCN)NC(=O)[C@@H](N)CCCCN)CCSCC(=O)NCC[C@@H](C(=O)O)NC1=O` [Cyclic peptide 144, KKK-(Hcy)-DPRGDTFA(Dab(acetyl))] (H-KKK[hCys]DPRGDTFA[Dab]-OH; linker 4-13 via X2), on human integrin αvβ5, the Kd is less than 50 nM. For the same compound, in series [1], the “Stability (molecule stability, residual rate of the cyclic peptide rank)” value is given as “A (The residual rate of the cyclic peptide is 70% or more.)”.

In the case of `C[C@@H]1NC(=O)[C@H](Cc2ccccc2)NC(=O)[C@H]([C@@H](C)O)NC(=O)[C@H](CC(=O)O)NC(=O)CNC(=O)[C@H](CCCNC(=N)N)NC(=O)[C@@H]2CCCN2C(=O)[C@H](CCC(=O)O)NC(=O)[C@@H](NC(=O)[C@H](CCCCN)NC(=O)[C@H](CCCCN)NC(=O)[C@@H](N)CCCCN)CCSCC(=O)NCC[C@@H](C(=O)O)NC1=O` [Cyclic peptide 145, KKK-(Hcy)-EPRGDTFA(Dab(acetyl))] (H-KKK[hCys]EPRGDTFA[Dab]-OH; linker 4-13 via X2), on human integrin αvβ5, the Kd is less than 50 nM. In addition, in series [1], the “Stability (molecule stability, residual rate of the cyclic peptide rank)” value was “A (The residual rate of the cyclic peptide is 70% or more.)”.

Consider `CC(C)C[C@@H]1NC(=O)[C@@H](NC(=O)[C@H](CCCCN)NC(=O)[C@H](CCCCN)NC(=O)[C@@H](N)CCCCN)CCSCC(=O)NCC[C@@H](C(=O)O)NC(=O)[C@H](C)NC(=O)[C@H](Cc2ccccc2)NC(=O)[C@H]([C@@H](C)O)NC(=O)[C@H](CC(=O)O)NC(=O)CNC(=O)[C@H](CCCNC(=N)N)NC(=O)[C@@H]2CCCN2C1=O` [Cyclic peptide 146, KKK-(Hcy)-LPRGDTFA(Dab(acetyl))] (H-KKK[hCys]LPRGDTFA[Dab]-OH; linker 4-13 via X2), for which the Kd on human integrin αvβ5 was less than 50 nM. In series [1], the “Stability (molecule stability, residual rate of the cyclic peptide rank)” value is “A (The residual rate of the cyclic peptide is 70% or more.)”.

Take `C[C@@H]1NC(=O)[C@H](Cc2ccccc2)NC(=O)[C@H]([C@@H](C)O)NC(=O)[C@H](CC(=O)O)NC(=O)CNC(=O)[C@H](CCCNC(=N)N)NC(=O)[C@@H]2CCCN2C(=O)[C@H]([C@@H](C)O)NC(=O)[C@@H](NC(=O)[C@H](CCCCN)NC(=O)[C@H](CCCCN)NC(=O)[C@@H](N)CCCCN)CCSCC(=O)NCC[C@@H](C(=O)O)NC1=O` [Cyclic peptide 147, KKK-(Hcy)-TPRGDTFA(Dab(acetyl))] (H-KKK[hCys]TPRGDTFA[Dab]-OH; linker 4-13 via X2): the Kd on human integrin αvβ5 was less than 50 nM. Besides, in series [1], the “Stability (molecule stability, residual rate of the cyclic peptide rank)” value is “A (The residual rate of the cyclic peptide is 70% or more.)”.

For `C[C@@H]1NC(=O)[C@H](Cc2ccccc2)NC(=O)[C@H]([C@@H](C)O)NC(=O)[C@H](CC(=O)O)NC(=O)CNC(=O)[C@H](CCCNC(=N)N)NC(=O)[C@@H]2CCCN2C(=O)[C@H](Cc2ccc(O)cc2)NC(=O)[C@@H](NC(=O)[C@H](CCCCN)NC(=O)[C@H](CCCCN)NC(=O)[C@@H](N)CCCCN)CCSCC(=O)NCC[C@@H](C(=O)O)NC1=O` [Cyclic peptide 148, KKK-(Hcy)-YPRGDTFA(Dab(acetyl))] (H-KKK[hCys]YPRGDTFA[Dab]-OH; linker 4-13 via X2), on human integrin αvβ5, the Kd is less than 50 nM. In addition, the “Stability (molecule stability, residual rate of the cyclic peptide rank)” value in series [1] is recorded as “A (The residual rate of the cyclic peptide is 70% or more.)”.

For the compound `CC(C)[C@@H]1NC(=O)[C@@H](NC(=O)[C@H](CCCCN)NC(=O)[C@H](CCCCN)NC(=O)[C@@H](N)CCCCN)CCSCC(=O)NCC[C@@H](C(=O)O)NC(=O)[C@H](C)NC(=O)[C@H](Cc2ccccc2)NC(=O)[C@H]([C@@H](C)O)NC(=O)[C@H](CC(=O)O)NC(=O)CNC(=O)[C@H](CCCNC(=N)N)NC(=O)[C@H](CO)NC1=O` [Cyclic peptide 149, KKK-(Hcy)-VSRGDTFA(Dab(acetyl))] (H-KKK[hCys]VSRGDTFA[Dab]-OH; linker 4-13 via X2), at human integrin αvβ5, the Kd is less than 50 nM. Further, the “Stability (molecule stability, residual rate of the cyclic peptide rank)” value in series [1] is on record as “A (The residual rate of the cyclic peptide is 70% or more.)”.

Turning to `CC(C)[C@@H]1NC(=O)[C@@H](NC(=O)[C@H](CCCCN)NC(=O)[C@H](CCCCN)NC(=O)[C@@H](N)CCCCN)CCSCC(=O)NCC[C@@H](C(=O)O)NC(=O)[C@H](C)NC(=O)[C@H](Cc2ccccc2)NC(=O)[C@H]([C@@H](C)O)NC(=O)[C@H](CC(=O)O)NC(=O)CNC(=O)[C@H](CCCNC(=N)N)NC(=O)[C@H]([C@@H](C)O)NC1=O` [Cyclic peptide 150, KKK-(Hcy)-VTRGDTFA(Dab(acetyl))] (H-KKK[hCys]VTRGDTFA[Dab]-OH; linker 4-13 via X2), the Kd at human integrin αvβ5 was less than 50 nM. Moreover, in series [1], the “Stability (molecule stability, residual rate of the cyclic peptide rank)” value is reported as “A (The residual rate of the cyclic peptide is 70% or more.)”.

Regarding `CC(C)[C@@H]1NC(=O)[C@H](CC(=O)O)NC(=O)CNC(=O)[C@H](CCCNC(=N)N)NC(=O)[C@@H]2CCCN2C(=O)[C@H](C(C)C)NC(=O)[C@@H](NC(=O)[C@H](CCCCN)NC(=O)[C@H](CCCCN)NC(=O)[C@@H](N)CCCCN)CCSCC(=O)NCC[C@@H](C(=O)O)NC(=O)[C@H](C)NC(=O)[C@H](Cc2ccccc2)NC1=O` [Cyclic peptide 151, KKK-(Hcy)-VPRGDVFA(Dab(acetyl))] (H-KKK[hCys]VPRGDVFA[Dab]-OH; linker 4-13 via X2), on human integrin αvβ5, the Kd was less than 50 nM. The “Stability (molecule stability, residual rate of the cyclic peptide rank)” value in series [1] was “A (The residual rate of the cyclic peptide is 70% or more.)”.

Take `CC(C)[C@@H]1NC(=O)[C@@H](NC(=O)[C@H](CCCCN)NC(=O)[C@H](CCCCN)NC(=O)[C@@H](N)CCCCN)CCSCC(=O)NCC[C@@H](C(=O)O)NC(=O)CNC(=O)[C@H](Cc2ccccc2)NC(=O)[C@H]([C@@H](C)O)NC(=O)[C@H](CC(=O)O)NC(=O)CNC(=O)[C@H](CCCNC(=N)N)NC(=O)[C@@H]2CCCN2C1=O` [Cyclic peptide 152, KKK-(Hcy)-VPRGDTFG(Dab(acetyl))] (H-KKK[hCys]VPRGDTFG[Dab]-OH; linker 4-13 via X2): on human integrin αvβ5, the Kd is less than 50 nM. Moreover, in series [1], the “Stability (molecule stability, residual rate of the cyclic peptide rank)” value is on record as “A (The residual rate of the cyclic peptide is 70% or more.)”.

`CC(C)[C@@H]1NC(=O)[C@@H](NC(=O)[C@H](CCCCN)NC(=O)[C@H](CCCCN)NC(=O)[C@@H](N)CCCCN)CCSCC(=O)NCC[C@@H](C(=O)O)NC(=O)[C@H](CO)NC(=O)[C@H](Cc2ccccc2)NC(=O)[C@H]([C@@H](C)O)NC(=O)[C@H](CC(=O)O)NC(=O)CNC(=O)[C@H](CCCNC(=N)N)NC(=O)[C@@H]2CCCN2C1=O` [Cyclic peptide 153, KKK-(Hcy)-VPRGDTFS(Dab(acetyl))] (H-KKK[hCys]VPRGDTFS[Dab]-OH; linker 4-13 via X2): the Kd on human integrin αvβ5 was less than 50 nM. The “Stability (molecule stability, residual rate of the cyclic peptide rank)” value in series [1] is “A (The residual rate of the cyclic peptide is 70% or more.)”.

`CC(C)[C@@H]1NC(=O)[C@@H](NC(=O)[C@H](CCCCN)NC(=O)[C@H](CCCCN)NC(=O)[C@@H](N)CCCCN)CCSCC(=O)NCC[C@@H](C(=O)O)NC(=O)[C@H]([C@@H](C)O)NC(=O)[C@H](Cc2ccccc2)NC(=O)[C@H]([C@@H](C)O)NC(=O)[C@H](CC(=O)O)NC(=O)CNC(=O)[C@H](CCCNC(=N)N)NC(=O)[C@@H]2CCCN2C1=O` [Cyclic peptide 154, KKK-(Hcy)-VPRGDTFT(Dab(acetyl))] (H-KKK[hCys]VPRGDTFT[Dab]-OH; linker 4-13 via X2): at human integrin αvβ5, the Kd fell in the range of 50 to 100 nM. Further, the “Stability (molecule stability, residual rate of the cyclic peptide rank)” value in series [1] is given as “A (The residual rate of the cyclic peptide is 70% or more.)”.

Turning to `C[C@@H]1NC(=O)[C@H](Cc2ccccc2)NC(=O)[C@H]([C@@H](C)O)NC(=O)[C@H](CC(=O)O)NC(=O)CNC(=O)[C@H](CCCNC(=N)N)NC(=O)[C@H]([C@@H](C)O)NC(=O)[C@H]([C@@H](C)O)NC(=O)[C@@H](NC(=O)[C@H](CCCCN)NC(=O)[C@H](CCCCN)NC(=O)[C@@H](N)CCCCN)CCSCC(=O)NCC[C@@H](C(=O)O)NC1=O` [Cyclic peptide 155, KKK-(Hcy)-TTRGDTFA(Dab(acetyl))] (H-KKK[hCys]TTRGDTFA[Dab]-OH; linker 4-13 via X2), on human integrin αvβ5, the Kd was less than 50 nM. Further, the “Stability (molecule stability, residual rate of the cyclic peptide rank)” value in series [1] is listed as “A (The residual rate of the cyclic peptide is 70% or more.)”.

For `C[C@@H]1NC(=O)[C@H](Cc2ccccc2)NC(=O)[C@H](CO)NC(=O)[C@H](CC(=O)O)NC(=O)CNC(=O)[C@H](CCCNC(=N)N)NC(=O)[C@@H]2CCCN2C(=O)[C@H]([C@@H](C)O)NC(=O)[C@@H](NC(=O)[C@H](CCCCN)NC(=O)[C@H](CCCCN)NC(=O)[C@@H](N)CCCCN)CCSCC(=O)NCC[C@@H](C(=O)O)NC1=O` [Cyclic peptide 156, KKK-(Hcy)-TPRGDSFA(Dab(acetyl))] (H-KKK[hCys]TPRGDSFA[Dab]-OH; linker 4-13 via X2), at human integrin αvβ5, the Kd fell in the range of 50 to 100 nM. Further, the “Stability (molecule stability, residual rate of the cyclic peptide rank)” value in series [1] was “A (The residual rate of the cyclic peptide is 70% or more.)”.

As for `C[C@@H]1NC(=O)[C@H](Cc2ccccc2)NC(=O)[C@H](CO)NC(=O)[C@H](CC(=O)O)NC(=O)CNC(=O)[C@H](CCCNC(=N)N)NC(=O)[C@H]([C@@H](C)O)NC(=O)[C@H]([C@@H](C)O)NC(=O)[C@@H](NC(=O)[C@H](CCCCN)NC(=O)[C@H](CCCCN)NC(=O)[C@@H](N)CCCCN)CCSCC(=O)NCC[C@@H](C(=O)O)NC1=O` [Cyclic peptide 157, KKK-(Hcy)-TTRGDSFA(Dab(acetyl))] (H-KKK[hCys]TTRGDSFA[Dab]-OH; linker 4-13 via X2), the Kd at human integrin αvβ5 is less than 50 nM. The “Stability (molecule stability, residual rate of the cyclic peptide rank)” value in series [1] was “A (The residual rate of the cyclic peptide is 70% or more.)”.
